The molecules below were run on Septoria tritici (ATCC 26517) (assay: Minimum Inhibitory Concentration (MIC) vs. Septoria tritici). Details: Zymoseptoria tritici, ATCC26517, 168 h; S. tritici ATCC 26517; 50% growth reduction; 7 days at 22 °C; read-out: Septoria Rating (MIC).
Assay type: cell-based
Experimental: C. Minimum Inhibitory Concentration (MIC) vs. Septoria Tritici Compounds were assessed for their ability to inhibit the growth of a common strain of the fungal plant pathogen Septoria tritici (ATCC 26517) using a procedure based on a Clinical and Laboratory Standards Institute (CLSI) microdilution assay protocol for filamentous fungi. Stock solutions of the test compounds and standards were prepared in DMSO at 6400 μg/mL. Each stock solution was used to prepare a 2-fold dilution series ranging from 16 to 0.016 μg/mL (total of 11 compound concentrations) in RPMI-1640 (Roswell Park Memorial Institute) medium containing 3-(N-morpholino)propanesulfonic acid (MOPS) buffer and 2% DMSO. A 100 μL aliquot of the dilutions was added to columns 1 (16 μg/mL compound) through 11 (0.016 μg/mL compound) of a 96-well microtiter plate. This format was replicated in a second row of the microtiter plate. Thus, each microtiter plate could include 11 concentrations of four test or control compounds replicated twice. A 100 μL aliquot of RPMI-1640/MOPS/2% DMSO medium was added to column 12 (no compound control) of the microtiter plate. A fresh culture of S. tritici was used to prepare a solution of approximately 5×10^4 colony-forming units per milliliter (cfu/mL) in RPMI/MOPS medium without DMSO. A 100 μL aliquot of this solution was added to all 96 wells in the microtiter plate. […]

MIC	Structure (SMILES)
≤ 0.5 µg/mL	OC(Cn1cnnn1)(c1ccc(F)cc1F)C(F)(F)c1ccc(OCc2ccccc2)cn1 (stereo not drawn) [Compound 30, 1-(5-(Benzyloxy)pyridin-2-yl)-2-(2,4-difluorophenyl)-1,1-difluoro-3-(1H-tetrazol-1-yl)propan-2-ol]
≤ 0.5 µg/mL	CC#CCOc1ccc(C(F)(F)C(O)(Cn2cnnn2)c2ccc(F)cc2F)nc1 (stereo not drawn) [Compound 32, 1-(5-(But-2-yn-1-yloxy)pyridin-2-yl)-2-(2,4-difluorophenyl)-1,1-difluoro-3-(1H-tetrazol-1-yl)propan-2-ol]

The molecules below were run on Puccinia recondita tritici = Puccinia triticina (PUCCRT) (assay: Fungicidal activity vs. leaf rust on wheat plants). Details: wheat (Yuma) sprayed at 50 ppm, inoculated the following day, rated 7-9 days later, read-out: Puccinia Rating (% Disease Control @ 50 ppm).
Assay type: in vivo
Method in brief: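 Wheat seedlings sprayed to wet with compound at 50 ppm in 10% acetone/90% Triton X100 water (~1500 L/ha), then inoculated next day with P. triticina spores and held humid overnight.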

Structure (SMILES)	pest or weed control at 50 ppm
OC(Cn1cnnn1)(c1ccc(F)cc1F)C(F)(F)c1ccc(OCc2ccccc2)cn1 (stereo not drawn) [Compound 30, 1-(5-(Benzyloxy)pyridin-2-yl)-2-(2,4-difluorophenyl)-1,1-difluoro-3-(1H-tetrazol-1-yl)propan-2-ol]	80 to 100%
OC(Cn1cnnn1)(c1ccc(F)cc1F)C(F)(F)c1ccc(OCc2ccc(Cl)cn2)cn1 (stereo not drawn) [Compound 113, 1-(5-((5-chloropyridin-2-yl)methoxy)pyridin-2-yl)-2-(2,4-difluorophenyl)-1,1-difluoro-3-(1H-tetrazol-1-yl)propan-2-ol]	80 to 100%
OC(Cn1cnnn1)(c1ccc(F)cc1F)C(F)(F)c1ccc(OCc2ccc(C(F)(F)F)cn2)cn1 (stereo not drawn) [Compound 114, 2-(2,4-difluorophenyl)-1,1-difluoro-3-(1H-tetrazol-1-yl)-1-(5-((5-(trifluoromethyl)pyridin-2-yl)methoxy)pyridin-2-yl)propan-2-ol]	80 to 100%
OC(Cn1cnnn1)(c1ccc(F)cc1F)C(F)(F)c1ccc(OCc2ccc(C(F)(F)F)nc2)cn1 (stereo not drawn) [Compound 115, 2-(2,4-difluorophenyl)-1,1-difluoro-3-(1H-tetrazol-1-yl)-1-(5-((6-(trifluoromethyl)pyridin-3-yl)methoxy)pyridin-2-yl)propan-2-ol]	80 to 100%
OC(Cn1cnnn1)(c1ccc(F)cc1F)C(F)(F)c1ccc(OCc2ccc(Cl)nc2)cn1 (stereo not drawn) [Compound 116, 1-(5-((6-chloropyridin-3-yl)methoxy)pyridin-2-yl)-2-(2,4-difluorophenyl)-1,1-difluoro-3-(1H-tetrazol-1-yl)propan-2-ol]	80 to 100%
OC(Cn1cnnn1)(c1ccc(F)cc1F)C(F)(F)c1ccc(OCc2ccnc(Cl)c2)cn1 (stereo not drawn) [Compound 117, 1-(5-((2-chloropyridin-4-yl)methoxy)pyridin-2-yl)-2-(2,4-difluorophenyl)-1,1-difluoro-3-(1H-tetrazol-1-yl)propan-2-ol]	80 to 100%
OC(Cn1cnnn1)(c1ccc(F)cc1F)C(F)(F)c1ccc(OCc2ccncc2)cn1 (stereo not drawn) [Compound 118, 2-(2,4-difluorophenyl)-1,1-difluoro-1-(5-(pyridin-4-ylmethoxy)pyridin-2-yl)-3-(1H-tetrazol-1-yl)propan-2-ol]	< 40%
OC(Cn1cnnn1)(c1ccc(F)cc1F)C(F)(F)c1ccc(OCC(F)(F)c2ccccc2)cn1 (stereo not drawn) [Compound 119, 1-(5-(2,2-difluoro-2-phenylethoxy)pyridin-2-yl)-2-(2,4-difluorophenyl)-1,1-difluoro-3-(1H-tetrazol-1-yl)propan-2-ol]	80 to 100%
OC(Cn1cnnn1)(c1ccc(F)cc1F)C(F)(F)c1ccc(OCC(F)(F)c2ccc(OC(F)F)cc2)cn1 (stereo not drawn) [Compound 120, 1-(5-(2-(4-(difluoromethoxy)phenyl)-2,2-difluoroethoxy)pyridin-2-yl)-2-(2,4-difluorophenyl)-1,1-difluoro-3-(1H-tetrazol-1-yl)propan-2-ol]	80 to 100%
N#Cc1ccc(C(F)(F)COc2ccc(C(F)(F)C(O)(Cn3cnnn3)c3ccc(F)cc3F)nc2)cc1 (stereo not drawn) [Compound 121, 4-(2-((6-(2-(2,4-difluorophenyl)-1,1-difluoro-2-hydroxy-3-(1H-tetrazol-1-yl)propyl)pyridin-3-yl)oxy)-1,1-difluoroethyl)benzonitrile]	80 to 100%
OC(Cn1cnnn1)(c1ccc(F)cc1F)C(F)(F)c1ccc(OCC(F)(F)c2ccc(Cl)cc2)cn1 (stereo not drawn) [Compound 122, 1-(5-(2-(4-chlorophenyl)-2,2-difluoroethoxy)pyridin-2-yl)-2-(2,4-difluorophenyl)-1,1-difluoro-3-(1H-tetrazol-1-yl)propan-2-ol]	80 to 100%
OC(Cn1cnnn1)(c1ccc(F)cc1F)C(F)(F)c1ccc(OCC(F)c2ccccc2)cn1 (stereo not drawn) [Compound 123, 2-(2,4-difluorophenyl)-1,1-difluoro-1-(5-(2-fluoro-2-phenylethoxy)pyridin-2-yl)-3-(1H-tetrazol-1-yl)propan-2-ol]	80 to 100%
OC(Cn1cnnn1)(c1ccc(F)cc1F)C(F)(F)c1ccc(OCC(F)c2ccc(OC(F)F)cc2)cn1 (stereo not drawn) [Compound 124, 1-(5-(2-(4-(difluoromethoxy)phenyl)-2-fluoroethoxy)pyridin-2-yl)-2-(2,4-difluorophenyl)-1,1-difluoro-3-(1H-tetrazol-1-yl)propan-2-ol]	80 to 100%
